In patent US20250025454A1 (priority 2021, published 2025):
≈ marks a conversion by molar mass, not a printed value. Where “and” joins values, the source holds several entries; their conditions need not be identical. Equal entries are not always repeated. Where two headings read alike, the source gives them in different places.

What was measured:
[1] = Pharmacokinetics (plasma and lung tissue) after single and 5-day repeat oral dosing in female 129S1 mice; conditions: female, 129S1, mouse; for Cmax / Cmax at 5 day / half-life / half-life at 5 day / AUC(0-t) / AUC(0-inf) / MRT last at 5 day / MRT last / Tmax at 5 day / Tmax / Kp at 24 h: in vivo, po; for AUC(0-t): AUClast ± SE; for MRT last at 5 day / MRT last: MRTlast; for Kp at 24 h: L/P Ratio, non-infected mice, 250 mg/kg QD oral
SARS-CoV-2/WA1 = type: cell-based
[2] = Scripps ReFrame database; cited from earlier work
[3] = cited from earlier work
in vivo [4] = conditions: female, 129S1, mouse; for Tmax: range
in vivo [5] = conditions: male, Sprague-Dawley, rat, po; for AUC(0-t): AUClast
SARS-CoV-2 = conditions: Scripps ReFrame database; cited from earlier work
in vivo [6] = conditions: female, 129/S, mouse
[7] = 50 mg/kg, plasma, 50 mg/kg PO multiple, 5-day, dose
[8] = 50 mg/kg, plasma, 50 mg/kg PO single dose
[9] = 250 mg/kg, plasma, 250 mg/kg PO multiple, 5-day, dose
[10] = 250 mg/kg, plasma, 250 mg/kg PO single dose
[11] = 250 mg/kg, lung, 250 mg/kg PO multiple, 5-day, dose
[12] = 1000 mg/kg, Plasma concentration

For Cc1c(-c2ccc(O)cc2)n(Cc2ccc(OCCN3CCCCC3)cc2)c2ccc(O)cc12 [Pipendoxifene, 2-(4-hydroxyphenyl)-3-methyl-1-[[4-(2-piperidin-1-ylethoxy)phenyl]methyl]indol-5-ol], the Cmax ([1]; 50 mg/kg) was 179 ng/mL and 8310 ng/g, the Cmax at 5 day ([1]; 50 mg/kg) was 5610 ± 925 ng/g and the half-life ([1]; 50 mg/kg) was 2.36 h. The half-life at 5 day ([1]; 50 mg/kg) was 2.58 h, the AUC(0-t) [1, 7] was 1390 ± 55 ng·h/mL and the AUC(0-t) [1, 8] was 1600 ± 115 ng·h/mL. It also gave an AUC(0-inf) [1, 7] of 1400 ng·h/mL, an AUC(0-inf) [1, 8] of 1600 ng·h/mL and an MRT last at 5 day [1, 7] of 7.1 h. For the same compound, the MRT last [1, 8] was 6.95 h, the Tmax at 5 day ([1]; 50 mg/kg, lung, 50 mg/kg PO multiple, 5-day, dose) was 8 h and the Tmax ([1]; 50 mg/kg, lung, 50 mg/kg PO single dose) was 4 h. The Tmax [1, 8] was 2 h, the Cmax ([1]; 250 mg/kg) was 1020 ng/mL and 24700 ng/g and the Cmax at 5 day ([1]; 250 mg/kg) was 39000 ± 8840 ng/g. It also gave a half-life ([1]; 250 mg/kg) of 3.96 h, a half-life at 5 day ([1]; 250 mg/kg) of 2.52 h and an AUC(0-t) [1, 9] of 11600 ± 1190 ng·h/mL. For the same compound, the AUC(0-inf) [1, 9] was 11700 ng·h/mL, the AUC(0-inf) [1, 10] was 10500 ng·h/mL and the Kp at 24 h ([1]; 250 mg/kg, Day 1) was 114. It also gave a Kp at 24 h ([1]; 250 mg/kg, Day 5) of 177, an MRT last at 5 day [1, 11] of 7.22 h and an MRT last [1, 10] of 8.86 h. The Tmax at 5 day [1, 11] was 4 h, the Tmax ([1]; 250 mg/kg, lung, 250 mg/kg PO single dose) was 8 h and the concentration at 8 h ([1]; lung, oral, 50 mg/kg, Mean lung tissue concentration, 50 mg/kg PO multiple, 5-day, dose, 8.0 hr) was 5610 ± 1600 ng/g. It also gave a concentration at 1 hr ([1]; plasma, oral, 50 mg/kg, Mean plasma concentration, 50 mg/kg PO single dose, 1.0 hr) of 89.1 ± 71.2 ng/mL, a concentration at 4 h ([1]; plasma, oral, 50 mg/kg, Mean plasma concentration, 50 mg/kg PO single dose, 4.0 hr) of 107 ± 23 ng/mL and a concentration at 2 hr ([1]; plasma, oral, 50 mg/kg, Plasma Conc., individual mouse, 50 mg/kg PO multiple, 5-day, dose, 2.0 hr) of 113 ng/mL. The concentration at 6 hr ([1]; plasma, oral, 50 mg/kg, Plasma Conc., individual mouse, 50 mg/kg PO multiple, 5-day, dose, 6.0 hr) was 163 ng/mL, the concentration at 8 hr ([1]; plasma, oral, 50 mg/kg, Plasma Conc., individual mouse, 50 mg/kg PO single dose, 8.0 hr) was 113 ng/mL and the concentration at 0.5 h ([1]; plasma, oral, 250 mg/kg, Mean plasma concentration, 250 mg/kg PO single dose, 0.5 hr) was 88.8 ± 14.1 ng/mL. The concentration at 4 hr ([1]; plasma, oral, 250 mg/kg, Plasma Conc., individual mouse, 250 mg/kg PO multiple, 5-day, dose, 4.0 hr) was 497 ng/mL, the “IC50 expressed as mass concentration” value (SARS-CoV-2/WA1) was 0.328 µg/mL (≈ 0.718 µM) and the “activity in HTS” value [2] was “INACTIVE”. The “mean t1/2” value ([3]; 150 mg dose) was 15.8 h, the “mean t1/2” value ([3]; 200 mg dose) was 26 h and the Clearance ([3]; in vivo) was 4 to 10.5 h⁻¹ kg⁻¹. For the same compound, the “time to steady-state plasma levels” value ([3]; in vivo) was 4 to 5 days, the Kp (in vivo [4]) was roughly 50 and the Tmax (in vivo [4]; 250 mg/kg, Mean Tmax (plasma)) was 2 to 6 h. For the same compound, the Tmax (in vivo [4]; 250 mg/kg, Tmax (lung)) was 4 to 8 h, the Cmax at 5 day (in vivo [4]; po, 50 mg/kg) was 178 ± 8 ng/mL and the MRT last (in vivo [4]; po, 50 mg/kg) was 6.79 h. The MRT last at 5 day (in vivo [4]; po, 50 mg/kg) was 7.35 h, the Tmax at 5 day (in vivo [4]; po, 50 mg/kg) was 5 h and the Cmax at 5 day (in vivo [4]; po, 250 mg/kg) was 1050 ± 230 ng/mL. It also gave an MRT last (in vivo [4]; po, 250 mg/kg) of 8.27 h, a Tmax at 5 day (in vivo [4]; po, 250 mg/kg) of 6 h and an AUC(0-t) (in vivo [5]; 250 mg/kg) of 4120 ng·h/mL. It also gave a Cmax (in vivo [5]; 250 mg/kg) of 336 ng/mL, a Tmax (in vivo [5]; 250 mg/kg, tmax) of 6 h and a Cmax (in vivo [5]; 500 mg/kg) of 462 ng/mL. The Tmax (in vivo [5]; 500 mg/kg, tmax) was 6 h, the AUC(0-t) (in vivo [5]; 750 mg/kg) was 5260 ng·h/mL and the Tmax (in vivo [5]; 750 mg/kg, tmax) was 6 h. It also gave an AUC(0-t) (in vivo [5]; 1000 mg/kg) of 5700 ng·h/mL, an AUC(0-inf) (in vivo [5]; 1000 mg/kg, AUC∞) of 7730 ng·h/mL and a Cmax (in vivo [5]; 1000 mg/kg) of 452 ± 75 ng/mL. It also gave a concentration at 0.25 h (in vivo [5]; [12]) of 5.05 ng/mL, a concentration at 0.25 hr (in vivo [5]; [12]) of 5.05 ng/mL and a concentration at 2 h (in vivo [5]; [12]) of 226 ng/mL. It also gave a concentration at 2 hr (in vivo [5]; [12]) of 226 ng/mL, a concentration at 4 h (in vivo [5]; [12]) of 335 ng/mL and a concentration at 4 hr (in vivo [5]; [12]) of 335 ng/mL. For the same compound, the concentration at 6 h (in vivo [5]; [12]) was 489 ng/mL, the concentration at 8 h (in vivo [5]; [12]) was 295 ng/mL and the concentration at 8 hr (in vivo [5]; [12]) was 295 ng/mL. For the same compound, the Tmax (in vivo [5]; 1000 mg/kg, tmax) was 6 h, the Tmax (in vivo [5]; Mean Tmax (plasma), range) was 5.3 to 6 h and the “activity in HTS” value (SARS-CoV-2) was “INACTIVE”. For the same compound, the Kp (in vivo [6]; C24 h lung concentrations relative to plasma concentrations (higher)) was 3 to 4, the Kp (in vivo [6]; po, 250 mg/kg, L/P Ratio) was 4.04 and the Kp (in vivo [6]; po, L/P Ratio) was 4.03.
